Experimental data reported in patent publication US8669264B2, “Rutaecarpine derivatives for activating CYP1A2 in a subject” (Linnet Biopharmaceuticals, Inc., priority 2011, dated 2014).

Tested on: CYP1A2
Test: MEROD assay in live Hepa1c1c7 cells (CYP1A2 induction)
Type: cell-based, mouse
Settings: Hepa1c1c7 cells incubated with 10 μM compound
Text: FIG. 1 illustrates how caffeine is primarily metabolized to paraxanthine via CYP1A2 enzyme in a human, according to some embodiments. The MEROD (methoxyresorufin-O-demethylase) assay measures the activity of the enzyme (CYP1A2) that converts methoxyresorufin (probe substrate) to resorufin (demethylation) in the presence of NADPH. The resulting resorufin concentration can be measured using a fluorescence reader by setting the excitation and emission wavelengths at 544 and 590 nm, respectively.
For MEROD assay in live cells, Hepa1c1c7 cells were cultured in either 6-well or 24-well-plates. For the 24-well plate experiment, after confluent cells were incubated for approximately 20 hours with either resorufin, nitro-resorufin, chloro-resorufin, 3-MC or DMSO (in triplicates), culture media was removed and 180 μL fresh culture media containing […] methoxyresorufin was added per well. After 1 hour incubation at 37° C., 100 μL aliquot was taken from each well and the formation of resorufin was measured by fluorescence. […] After 5 hours incubation at 37° C., 100 μL aliquot was taken from each well, centrifuged at 12,000 g at RT for ˜5 min and the supernatants were placed into wells of a 96-well fluorescence plate and the formation of resorufin was measured by fluorescence.

formation of resorufin from live cells (MEROD): no marked difference
Compound: O=c1c2ccc(Cl)cc2nc2n1CCc1c-2[nH]c2ccccc12 [chloro-rutaecarpine]
